These results are taken from patent US20060004087A1, “Tetracyclic compounds as estrogen ligands” (Wyeth, priority 2004, published 2006).

In general, IC50 refers to the concentration that gives 50% inhibition. The term melting point denotes the temperature, or range, at which the solid turns liquid.

Some results are limits rather than exact numbers.

For data set [1], the target named is T1, human ERβ (Homo sapiens, UniProt Q92731).
T1 construct: made in house; host or cells: E. coli (crude lysate)
T1 sequence (Q92731 264-498 limits assumed): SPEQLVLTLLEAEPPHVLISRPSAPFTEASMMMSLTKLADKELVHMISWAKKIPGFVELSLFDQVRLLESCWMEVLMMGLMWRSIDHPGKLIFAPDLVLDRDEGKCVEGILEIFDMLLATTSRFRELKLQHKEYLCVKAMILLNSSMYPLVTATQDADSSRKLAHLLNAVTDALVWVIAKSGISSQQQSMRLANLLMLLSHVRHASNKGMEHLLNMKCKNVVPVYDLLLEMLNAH
The data set is described as follows: Competition with [3H]-17β-estradiol for ERβ ligand binding domain. The note with it: E. coli lysate expressing ER ligand binding domains (D, E, & F); 2 nM [3H]-17β-estradiol; 5-15 hours at room temperature. As for the experimental part: (§1) This test procedure provides the methodology for one to determine whether a particular compound binds to the ER (and is therefore, “estrogenic”) and whether there is selectivity for ERα or ERβ. […] The procedure used is described briefly below. A crude lysate of E. coli expressing the ER ligand binding domains (D, E, & F) of human ERα or ERβ was prepared. Both ERs and compounds were diluted in 1× Dulbecco's Phosphate Buffered Saline (DPBS) supplemented with 1 mM EDTA. […] After between 5 and 15 hours at room temperature, the plates were washed with DPBS/1 mM EDTA and bound radioactivity determined by liquid scintillation counting.

Data set [2] deals with T2, human ERα (Homo sapiens, UniProt P03372).
T2 construct: made in house; host or cells: E. coli (crude lysate)
T2 sequence (P03372 311-547 limits assumed): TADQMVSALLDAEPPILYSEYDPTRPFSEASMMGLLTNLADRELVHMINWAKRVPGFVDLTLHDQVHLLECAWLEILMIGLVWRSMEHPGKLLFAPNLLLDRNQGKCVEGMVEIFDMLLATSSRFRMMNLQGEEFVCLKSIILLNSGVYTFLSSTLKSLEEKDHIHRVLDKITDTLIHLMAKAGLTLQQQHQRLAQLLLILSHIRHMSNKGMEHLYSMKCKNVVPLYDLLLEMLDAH
Kind of data set: Competition with [3H]-17β-estradiol for ERα ligand binding domain. The note with it: E. coli lysate expressing ER ligand binding domains (D, E, & F); 2 nM [3H]-17β-estradiol; 5-15 hours at room temperature. The procedure: as §1

Compound `N#Cc1c(O)ccc2c3c(oc12)-c1ccc(O)cc1CC3` [Example 6, 3,9-DIHYDROXY-5,6-DIHYDRO-BENZO[B]NAPHTHO[2,1-D]FURAN-10-CARBONITRILE] came in with a melting point greater than 300 °C. This compound returned an IC50 in data set [1] of 0.005 µM. Besides, the IC50 in data set [2] was 0.082 µM.

In the case of “2,9-DIHYDROXY-5,6-DIHYDRO-BENZO[B]NAPHTHO[2,1-D]FURAN-10-BENZONITRILE [Example 12]”, the IC50 worked out at 0.757 µM in data set [1] and 2.79 µM in data set [2].

`N#Cc1c(O)ccc2c1oc1c3ccc(O)cc3ccc21` [Example 7, 3,9-DIHYDROXY-BENZO[B]NAPHTHO[2,1-D]FURAN-10-CARBONITRILE]: the melting point was greater than 300 °C. In data set [1], the IC50 worked out at 0.003 µM. In data set [2], the IC50 came to 0.055 µM.

As for `Oc1ccc2c(c1)OCc1c-2oc2c(Br)cc(O)cc12` [Example 11, 10-BROMO-6H-BENZO[4,5]FURO[3,2-C]CHROMENE-3,8-DIOL], the IC50 was 0.001 µM in data set [1] and 0.042 µM in data set [2].

Take `N#Cc1cc(O)cc2c3c(oc12)-c1ccc(O)cc1CCC3` [Example 5, 3,9-DIHYDROXY-6,7-DIHYDRO-5H-12-OXA-DIBENZO[A,E]AZULEN-11-CARBONITRILE]: the IC50 in data set [1] worked out at 0.017 µM; in data set [2], 1.5 µM.

As for `Oc1ccc2c(ccc3c4ccc(O)cc4oc23)c1` [Example 2, BENZO[B]NAPHTHO[2,1-D]FURAN-3,9-DIOL], the figures for the IC50 in data set [1] and in data set [2] were 0.001 µM and 0.012 µM, respectively.

Turning to `Oc1ccc2c(c1)oc1c3ccc(O)cc3c(Br)cc21` [Example 3, 5-BROMO-BENZO[B]NAPHTHO[2,1-D]FURAN-3,9-DIOL], the figures for the IC50 in data set [1] and in data set [2] were 0.012 µM and 0.07 µM, respectively.

`Oc1ccc2c(c1)CCc1c-2oc2cc(O)ccc12` [Example 1, 5,6-DIHYDRO-BENZO[B]NAPHTHO[2,1-D]FURAN-3,9-DIOL]: the IC50 in data set [1] was 0.003 µM; in data set [2] it was 0.018 µM.

For the compound `Oc1ccc2c(c1)OCc1c-2oc2ccc(O)cc12` [Example 9, 6H-BENZO[4,5]FURO[3,2-C]CHROMEN-3,8-DIOL], the results for the IC50 in data set [1] and in data set [2] were 0.004 µM and 0.129 µM, respectively.

On to `N#Cc1cc(O)cc2c3c(oc12)-c1ccc(O)cc1CC3` [Example 4, 3,8-DIHYDROXY-5,6-DIHYDRO-BENZO[B]NAPHTHO[2,1-D]FURAN-10-CARBONITRILE], for which the melting point was 355 to 358 °C. The same compound showed an IC50 in data set [1] of 0.0012 µM. For the same compound, the IC50 in data set [2] was found to be 0.15 µM.

On to `N#Cc1cc(O)cc2c3c(oc12)-c1ccc(O)cc1OC3` [Example 10, 3,8-DIHYDROXY-6H-BENZO[4,5]FURO[3,2-C]CHROMENE-10-CARBONITRILE], for which the figures for the IC50 in data set [1] and in data set [2] were 0.002 µM and 0.159 µM, respectively.

On to `N#Cc1c(O)ccc2c1oc1c3cc(O)ccc3ccc21` [Example 13, 2,9-DIHYDROXY-BENZO[B]NAPHTHO[2,1-D]FURAN-10-CARBONITRILE], for which the melting point fell in the range of 291 to 295 °C.
